From patent publication US8853258B2, “C-linked hydroxamic acid derivatives useful as antibacterial agents” (Pfizer Inc., priority 2009, dated 2014)
≈ marks a conversion by molar mass, not a printed value. Where two headings read alike, the source gives them in different places.

Legend:
[1] = system: Escherichia coli EC-1: VOGEL, mouse virulent; experiment: MIC determination (CLSI), EC-1; type: cell-based; settings: for EC-1 MIC: Escherichia coli EC-1; for MIC: Escherichia coli, read-out: EC-1 MIC
Outline: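 E. coli Vogel, a mouse-virulent strain (EC-1), was tested. MICs were set by dilution susceptibility testing per CLSI standards M7-A7/M100-S18.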

[2] = system: Pseudomonas aeruginosa UI-18: Wild-type (PA-7); experiment: MIC determination (CLSI), PA-7; type: cell-based; settings: for PA-7 MIC: Pseudomonas aeruginosa UI-18 (PA-7); for MIC: Pseudomonas aeruginosa, Table 3, read-out: PA-7 MIC
Outline: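 MIC by dilution method per CLSI M7-A7 and M100-S18 guidelines. Strain: wild-type Pseudomonas aeruginosa UI-18.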

[3] = system: Acinetobacter baumanii/haemolyticus: Multidrug-resistant clinical isolate (AB-3167); experiment: MIC determination (CLSI), AB-3167; type: cell-based; settings: for AB-3167 MIC: Acinetobacter baumanii/haemolyticus AB-3167; for MIC: Acinetobacter baumannii, Table 3, read-out: AB-3167 MIC
Outline: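 Multidrug-resistant clinical isolate AB-3167 (A. baumannii/haemolyticus) tested for minimum inhibitory concentration following CLSI dilution susceptibility standards M7-A7 and M100-S18.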

[4] = target: Pseudomonas aeruginosa LpxC enzyme (Pseudomonas aeruginosa (strain ATCC 15692 / DSM 22644 / CIP 104116 / JCM 14847 / LMG 12228 / 1C / PRS 101 / PAO1), UniProt P47205); experiment: IC50 Assay, LpxC Enzyme from P. aeruginosa (PA LpxC Enzyme IC50); type: biochemical
Outline: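 Reaction run 1 h then stopped with 1N HCl. Conversion measured by RapidFire high-throughput mass spectrometry. IC50 derived from percent conversion relative to a no-enzyme control.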

[5] = system: Klebsiella pneumoniae: Ciprofloxacin-resistant isolate, ESBL, clinical isolate (KP-3700); experiment: MIC determination (CLSI), KP-3700; type: cell-based
Outline: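 MIC measured by broth dilution according to CLSI M7-A7 and M100-S18 standards. Test organism was a ciprofloxacin-resistant, ESBL-expressing clinical isolate.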

[6] = P. aeruginosa LpxC enzyme, read-out: PA LpxC enzyeme IC50
[7] = Table 3, read-out: PA LpxC enzyeme IC^50

Structure (SMILES)	EC-1 MIC [1]	PA-7 MIC [2]	AB-3167 MIC [3]	IC50 [4, 6]	KP-3700 MIC [5]	MIC [1]	MIC [2]	MIC [3]	IC50 [4, 7]
C[C@@](CCc1ccc(-c2cc3ccccc3[nH]2)cc1)(C(=O)NO)S(C)(=O)=O [Example 218]	0.5 µg/mL	0.5 µg/mL	32 µg/mL	0.034 nM	2 µg/mL				
COc1ccc(-c2ccc(CCC(C)(C(=O)NO)S(C)(=O)=O)cn2)c(F)c1 (centres unmarked) [Example 219]	4 µg/mL	8 µg/mL	≧64 mg/L	1.21 nM	16 µg/mL				
C[C@@](CCc1ccc(-c2ccc(OCCCN3CCCCC3)cc2)cc1)(C(=O)NO)S(C)(=O)=O [Example 220]	8 µg/mL	16 µg/mL	≧64 mg/L	0.467 nM	32 µg/mL				
C[C@@](CCc1ccc(-c2ccc(OCC(=O)N3CCC(O)CC3)cc2)cc1)(C(=O)NO)S(C)(=O)=O [Example 221]	16 µg/mL	16 µg/mL	≧64 mg/L	0.533 nM	≧64 mg/L				
CC1(O)CCN(C(=O)COc2ccc(-c3ccc(CC[C@](C)(C(=O)NO)S(C)(=O)=O)cc3)cc2)CC1 [Example 222]	16 µg/mL	32 µg/mL	≧64 mg/L	0.841 nM	≧64 mg/L				
C[C@@](CCc1ccc(-c2ccc(OCC(=O)N3CC(O)C3)cc2)cc1)(C(=O)NO)S(C)(=O)=O [Example 223]	16 µg/mL	8 µg/mL	≧64 mg/L	0.507 nM	32 µg/mL				
CC(CCc1ccc(C2=CCCCC2)cc1)(C(=O)NO)S(C)(=O)=O (centres unmarked) [Example 224]	4 µg/mL	2 µg/mL	4 µg/mL	0.441 nM	16 µg/mL				
CC(CCc1ccc(C2=CCOCC2)cc1)(C(=O)NO)S(C)(=O)=O (centres unmarked) [Example 225]	32 µg/mL	4 µg/mL	≧64 mg/L	1.88 nM	≧64 mg/L				
CC(CCc1ccc(C2=CCSCC2)cc1)(C(=O)NO)S(C)(=O)=O (centres unmarked) [Example 226]	8 µg/mL	1 µg/mL	16 µg/mL	0.32 nM	8 µg/mL				
CC(CCc1ccc(C2=CCCC2)cc1)(C(=O)NO)S(C)(=O)=O (centres unmarked) [Example 227]	≧64 mg/L	16 µg/mL	≧64 mg/L	11.4 nM	≧64 mg/L				
CC(CCc1ccc(COc2ccc(F)cc2)cc1)(C(=O)NO)S(C)(=O)=O (centres unmarked) [Example 228]	8 µg/mL	8 µg/mL	16 µg/mL	3.28 nM	16 µg/mL				
CC(CCc1ccc(COc2cccc(F)c2)cc1)(C(=O)NO)S(C)(=O)=O (centres unmarked) [Example 229]	8 µg/mL	8 µg/mL	16 µg/mL	3.24 nM	32 µg/mL				
CC(CCc1ccc(OCc2ccccc2F)cc1)(C(=O)NO)S(C)(=O)=O (centres unmarked) [Example 242, 4-{4-[(2-fluorobenzyl)oxy]phenyl}-N-hydroxy-2-methyl-2-(methylsulfonyl)butanamide]					8 µg/mL	4 µg/mL (≈ 10.1 µM)	≥ 64 µg/mL	≥ 64 µg/mL	0.655 nM
COc1cc(COc2ccc(CCC(C)(C(=O)NO)S(C)(=O)=O)cc2)cc(OC)c1 (centres unmarked) [Example 244, 4-{4-[(3,5-dimethoxybenzyl)oxy]phenyl}-N-hydroxy-2-methyl-2-(methylsulfonyl)butanamide]					16 µg/mL	4 µg/mL (≈ 9.14 µM)	≥ 64 µg/mL	≥ 64 µg/mL	5 nM
CC(CCc1ccc(OCc2cccc(F)c2F)cc1)(C(=O)NO)S(C)(=O)=O (centres unmarked) [Example 247, 4-{4-[(2,3-difluorobenzyl)oxy]phenyl}-N-hydroxy-2-methyl-2-(methylsulfonyl)butanamide]					16 µg/mL	2 µg/mL (≈ 4.84 µM)	2 µg/mL (≈ 4.84 µM)	16 µg/mL (≈ 38.7 µM)	0.325 nM
Cc1oc(-c2ccccc2F)nc1COc1ccc(CCC(C)(C(=O)NO)S(C)(=O)=O)cc1 (centres unmarked) [Example 251, 4-(4-{[2-(2-fluorophenyl)-5-methyl-1,3-oxazol-4-yl]methoxy}phenyl)-N-hydroxy-2-methyl-2-(methylsulfonyl)butanamide]					≧64 mg/L	32 µg/mL (≈ 67.2 µM)	≥ 64 µg/mL	≥ 64 µg/mL	21.6 nM
CC(CCc1ccc(OCc2c(F)cccc2F)cc1)(C(=O)NO)S(C)(=O)=O (centres unmarked) [Example 258, 4-{4-[(2,6-difluorobenzyl)oxy]phenyl}-N-hydroxy-2-methyl-2-(methylsulfonyl)butanamide]					16 µg/mL	2 µg/mL (≈ 4.84 µM)	2 µg/mL (≈ 4.84 µM)	32 µg/mL (≈ 77.4 µM)	0.599 nM
Cc1ccccc1COc1ccc(CCC(C)(C(=O)NO)S(C)(=O)=O)cc1 (centres unmarked) [Example 260, N-hydroxy-2-methyl-4-{4-[(2-methylbenzyl)oxy]phenyl}-2-(methylsulfonyl)butanamide]					≧64 mg/L	16 µg/mL (≈ 40.9 µM)	8 µg/mL (≈ 20.4 µM)	32 µg/mL (≈ 81.7 µM)	1.45 nM
CC(CCc1ccc(OCC2CCOCC2)cc1)(C(=O)NO)S(C)(=O)=O (centres unmarked) [Example 261, N-hydroxy-2-methyl-2-(methylsulfonyl)-4-[4-(tetrahydro-2H-pyran-4-ylmethoxy)phenyl]butanamide]					≧64 mg/L	≥ 64 µg/mL	32 µg/mL (≈ 83 µM)	≥ 64 µg/mL	4.93 nM
C#CCOc1ccc(CCC(C)(C(=O)NO)S(C)(=O)=O)cc1 (centres unmarked) [Example 265, N-hydroxy-2-methyl-2-(methylsulfonyl)-4-[4-(prop-2-yn-1-yloxy)phenyl)butanamide]					≧64 mg/L	≥ 64 µg/mL	16 µg/mL (≈ 49.2 µM)	≥ 64 µg/mL	105 nM
CC(C)CCc1noc(COc2ccc(CCC(C)(C(=O)NO)S(C)(=O)=O)cc2)n1 (centres unmarked) [Example 272, N-hydroxy-2-methyl-4-(4-{[3-(3-methylbutyl)-1,2,4-oxadiazol-5-yl]methoxy}phenyl)-2-(methylsulfonyl)butanamide]					≧64 mg/L	32 µg/mL (≈ 72.8 µM)	≥ 64 µg/mL	≥ 64 µg/mL	1.54 nM
Cc1cccc(-c2nc(COc3ccc(CCC(C)(C(=O)NO)S(C)(=O)=O)cc3)c(C)o2)c1 (centres unmarked) [Example 278, N-hydroxy-2-methyl-4-(4-{[5-methyl-2-(3-methylphenyl)-1,3-oxazol-4-yl]methoxy}phenyl)-2-(methylsulfonyl)butanamide]					≧64 mg/L	32 µg/mL (≈ 67.7 µM)	≥ 64 µg/mL	≥ 64 µg/mL	10.4 nM
CC(CCc1ccc(OCc2cc(F)ccc2C(F)(F)F)cc1)(C(=O)NO)S(C)(=O)=O (centres unmarked) [Example 280, 4-(4-{[5-fluoro-2-(trifluoromethyl)benzyl]oxy}phenyl)-N-hydroxy-2-methyl-2-(methylsulfonyl)butanamide]					32 µg/mL	8 µg/mL (≈ 17.3 µM)	32 µg/mL (≈ 69 µM)	32 µg/mL (≈ 69 µM)	13.8 nM
CC(CCc1ccc(OCCC2CCOCC2)cc1)(C(=O)NO)S(C)(=O)=O (centres unmarked) [Example 281, N-hydroxy-2-methyl-2-(methylsulfonyl)-4-{4-[2-(tetrahydro-2H-pyran-4-yl)ethoxy]phenyl}butanamide]					≧64 mg/L	≥ 64 µg/mL	32 µg/mL (≈ 80.1 µM)	≥ 64 µg/mL	6.77 nM
CC(Oc1ccc(CCC(C)(C(=O)NO)S(C)(=O)=O)cc1)c1ccccc1 (centres unmarked) [Example 282, N-hydroxy-2-methyl-2-(methylsulfonyl)-4-[4-(1-phenylethoxy)phenyl]butanamide]					≧64 mg/L	8 µg/mL (≈ 20.4 µM)	≥ 64 µg/mL	32 µg/mL (≈ 81.7 µM)	9.55 nM
Cc1ccc(Cc2noc(COc3ccc(CCC(C)(C(=O)NO)S(C)(=O)=O)cc3)n2)cc1 (centres unmarked) [Example 283, N-hydroxy-2-methyl-4-(4-{[3-(4-methylbenzyl)-1,2,4-oxadiazol-5-yl]methoxy}phenyl)-2-(methylsulfonyl)butanamide]					≧64 mg/L	16 µg/mL (≈ 33.8 µM)	≥ 64 µg/mL	≥ 64 µg/mL	6.32 nM
CC(CCc1ccc(OCc2ccc(F)cc2C#N)cc1)(C(=O)NO)S(C)(=O)=O (centres unmarked) [Example 284, 4-{4-[(2-cyano-4-fluorobenzyl)oxy]phenyl}-N-hydroxy-2-methyl-2-(methylsulfonyl)butanamide]					≧64 mg/L	32 µg/mL (≈ 76.1 µM)	≥ 64 µg/mL	≥ 64 µg/mL	5.36 nM
CC(CCc1ccc(OCc2ccccc2C#N)cc1)(C(=O)NO)S(C)(=O)=O (centres unmarked) [Example 285, 4-{4-[(2-cyanobenzyl)oxy]phenyl}-N-hydroxy-2-methyl-2-(methylsulfonyl)butanamide]					≧64 mg/L	32 µg/mL (≈ 79.5 µM)	32 µg/mL (≈ 79.5 µM)	≥ 64 µg/mL	10 nM
